Test results as given in US20230201262A1, “MYELOMA-SPECIFIC IMMUNITY REQUIRES THE DIFFERENTIATION OF STEM-LIKE MEMORY T CELLS IN THE BONE MARROW” (Fred Hutchinson Cancer Center, priority 2021, published 2023).
“Also recorded” adds a separate entry of the source.

Assays:
[1] = test system: BCR-ABL-NUP98-HOXA9 leukemia
Method: Recipients were untreated (haploBMT) or administered PT-Cy (50 mg/kg) on D+3 and D+4 (PT-Cy) with or without decoy-resistant IL-18 (PT-Cy + DR-18; 8 µg twice weekly from D+7 to week 5) or CD137 agonist antibody (PT-Cy + αCD137; 100 µg twice weekly from D+7 to week 5).
It was next sought to explore the combination of agonist immunotherapy with PT-Cy in a model of haploidentical transplantation (haploBMT), a setting where PT-Cy is a clinical standard of care. In this model, there is a major genetic mismatch between the recipient and the donor whereby lethal GVHD occurs in the absence of any immunosuppressive interventions.
To explore the mechanisms of DR-18-driven GVL in a haploBMT setting, donor cells from a triple reporter mouse (FoxP3-RFP × IL-10-GFP × IFN-γ-YFP) were used to measure in vivo cytokine production without restimulation. Phenotyping was performed in mice with low leukemia burden to minimize the effect of tumor cells on T cell number in the BM.
(§1) Stem cell transplantation: Recipient mice were intravenously injected with Vk12653, which originated from Vk*MYC transgenic mice, 2 weeks before BMT (1 × 10^6 CD138^+CD19neg cells; MM-bearing mice) or with an MLL-AF9-driven AML (MLL-AF9; 0.1 × 10^6 GFP^+) or BCR-ABL-NUP98-HOXA9 (1.0 × 10^6 GFP^+) on D0 (AML-bearing mice). Recipients were transplanted with BM and T cell grafts (doses detailed in the figure legends) administered via tail vein injection the day after lethal irradiation (1000 cGy for C57B⅙ and 1100 cGy for B62DF1, 137Cs source). Every 2 weeks, serum samples were collected from MMbearing recipients, and M-band was quantified using a Sebia Hydrasys serum protein electrophoresis system ([…] 2 Scan). Leukemia cell number in blood was calculated weekly using flow cytometry to quantify GFP^+ cells in blood. Recipients were monitored daily, up to 120 days after BMT, and euthanized when hindlimb paralysis occurred or clinical scores reached ≥6. In competing risk analyses, deaths were attributed to myeloma if the M-band was above 0.28, a defined relapse threshold. In the leukemia models, leukemic death was defined by a white blood cell count above 50 × 10^6/ml or a GFP^+ leukemia frequency above 50% in blood or BM. For some experiments, mice were treated with 100 µg of anti-TIGIT monoclonal antibody (mAb; 4B1, Bristol Myers Squibb) or mouse IgG2a (anti-KLH) twice a week for 4 weeks from D+14 postalloBMT. For other experiments, mice were treated with 100 µg of Fc-dead anti-TIGIT mAb (D265A, Bristol Myers Squibb) or mouse IgG1 (anti-KLH.1) twice a week for 6 weeks from D+21 postalloBMT. Cyclophosphamide (Fisher Scientific; 99.5%, MP Biomedicals) was intraperitoneally administered at 50 mg/kg on D+3 and D+4 after alloBMT (PT-Cy). […] DR-18 was supplied by Simcha Therapeutics (New Haven, CT).

[2] = test system: T cells in the BM
Method: It was next investigated whether it was possible to eliminate highly activated, alloreactive T cells to preserve T cell subsets that could be safely harnessed to improve GVT responses in the BM after alloBMT. […] T cell phenotypes in the BM were first assessed 14 days after transplantation in MM-free mice to generate a dataset that could be broadly interpreted independent of specific tumor induced phenotypes. Single-cell sequencing was performed on sorted T cells from BM with the 10x Genomics Multiome platform to measure concurrent changes in gene expression (RNA sequencing) and chromatin accessibility (ATAC (assay for transposase-accessible chromatin) sequencing).
(§2) Cell preparation for flow cytometry: Recipient mice were euthanized 2 to 8 weeks after transplant, and cells from BM or blood were harvested. For BM aspirates, mice were anesthetized and treated with a local analgesic (0.5% lidocaine) followed by injection of 30 µl of phosphate-buffered saline (PBS) into the femur to allow up to 10 µl of marrow to be aspirated for fluorescence- activated cell sorting (FACS) analysis. For surface marker phenotyping, isolated cells were incubated with Fc-block before staining with fluorescently tagged antibodies (listed in Table 1), on ice for 30 min. For intracellular staining, cells were surface labeled, fixed, and permeabilized (eBioscience, Foxp3 Transcription Factor Staining Buffer Kit) before intracellular staining at room temperature for 60 min. To measure cytokine production, cells were stimulated for 4 hours at 37° C. with PMA (500 ng/ml) and ionomycin (50 ng/ml; Sigma-Aldrich) with brefeldin A (BioLegend). All samples were acquired on a BD LSR Fortessa (BD Biosciences) or BD FACSymphony A3 (BD Biosciences) and analyzed using FlowJo software (v10). t-SNE analysis was performed using the FlowJo plugin with default settings on a concatenated sample with 3000 CD8 T cells per mouse. FlowSOM analysis was performed with 3000 to 4000 CD8 or CD4 T cells per mouse concatenated after downsampling.
Single-cell RNA/ATAC sequencing: Naive C57B⅙ mice were transplanted with C3H.SW grafts and were untreated (alloBMT) or treated with PT-Cy (50 mg/kg) on D+3 and D+4 (PT-Cy). BM was harvested from femurs (four mice pooled per group) at D+14 after alloBMT, and T cells were sort-purified (CD90.2^+CD4^+ and CD90.2^+CD8^+) before nuclei preparation according to the 10x Genomics Multiome protocol. Nuclei (also referred to as cells herein) were captured and libraries were generated according to the manufacturer’s specifications. Libraries were sequenced using Illumina NovaSeq 6000 targeting a depth of 25,000 reads per cell per library.
Single-cell RNA/ATAC analysis: Reads were demultiplexed and processed using cellranger-arc v1.0.1 aligning reads to GENCODE vM23/Ensembl98. Peaks were called from each sample’s fragment file (cellranger output) using MACS2 using the parameters “--nomodel --extsize 200 --shift -100.” Quantification of reads in MACS2 peaks were calculated and integrated with cellranger RNA output using Signac. Cells meeting the following criteria (calculated using Signac) were retained for downstream analysis: percent mitochondrial RNA reads <10%; 3 > log10(ATAC counts) < 4.5; 3 > log10(RNA/UMI counts) < 4.5; fraction of reads in peaks >40%; transcription start site (TSS) percentile >75%. RNA/unique molecular identifier (UMI) counts were subject to a variance-stabilized normalization procedure using Seurat’s “glmGamPoi” function before dimensionality reduction using principal components analysis (PCA).

[3] = test system: Vk*MYC myeloma; type: in vivo
From the text: To achieve this, a system of allogeneic BMT was developed where C57B⅙ recipients are transplanted with BM and T cell grafts from minor MHC (major histocompatibility complex)-mismatched C3H.SW donors (alloBMT) or syngeneic C57B⅙ donors (synBMT). A green fluorescent protein (GFP)-expressing MLL-AF9-driven leukemia that allows for monitoring of tumor cells in peripheral blood and Vk*MYC myeloma that secretes immunoglobulin G (IgG), which can be monitored by serum protein electrophoresis as an M-band (albumin/gamma ratio) that is a hallmark of clinical disease, were utilized.
as §1, §2
Statistical analysis: Data are presented as means ± SEM, and P < 0.05 was considered significant. Survival curves were plotted using Kaplan-Meier estimates and compared by log-rank (Mantel-Cox) test.

[4] = 50 mg/kg D+3 and D+4, vs untreated haploBMT
[5] = 21 days after transplantation, vs untreated haploBMT
[6] = 21 days, PT-Cy vs untreated haploBMT
[7] = 50 mg/kg D+3 and D+4, D+14, multiome sequencing, vs untreated alloBMT
[8] = 50 mg/kg D+3 and D+4, vs untreated recipients

Question: How did the “incidence of lethal GVHD” value [1, 4] turn out when `O=P1(N(CCCl)CCCl)NCCCO1` (stereo not shown) [PT-Cy, cyclophosphamide] was run?
Answer: The value was “reduced the incidence of lethal GVHD”.

Question: What about the relapse-related mortality [1, 4] of the same compound?
Answer: Its relapse-related mortality is “increased relapse-related mortality”.

Question: And the “CD8+ T cell numbers in the BM” value [1, 5]?
Answer: Its value is “reduced”.

Question: And the “NK cells in the BM” value [1, 5]?
Answer: Its value is “increased”.

Question: And the “CD4+ IFN-γ production” value [1, 6]?
Answer: Its value is “unaffected”.

Question: What about the “frequency of IFN-γ+ CD8+ T cells” value [1, 6] of the same compound?
Answer: The value was “minimally decreased”.

Question: And the overall survival ([1]; PT-Cy vs untreated haploBMT)?
Answer: The overall survival was “no difference in overall survival”.

Question: What about the “chromatin accessibility (gene activity scores) of Il18r1, Il2ra, Il7r in CD8+ and CD4+ T cells” value ([2]; 50 mg/kg D+3 and D+4, D+14, ATAC) of the same compound?
Answer: The value was “increased gene activity scores”.

Question: What about the “gene signature expression in BM CD8+ T cells” value [2, 7] of the same compound?
Answer: The value was “higher expression of stem-like memory gene signatures”.

Question: And the “gene signature in BM CD4+ T cells” value [2, 7]?
Answer: The value was “largely enriched for a TSCM signature”.

Question: What about the “CD8+ T cell phenotype in BM, MM-free recipients” value ([2]; 7 weeks after transplant) of the same compound?
Answer: The value was “most CD8^+ T cells were DNAM-1^+TIGIT^- and did not express TOX or TIM-3”.

Question: And the “CD8+ central memory and terminal effector T cells, MM-free recipients” value ([2]; 7 weeks after transplant)?
Answer: Its value is “increase in CD8^+ central memory (TCM; CD44^+CD62L^+) and a decrease in terminal effector (TEFF; CD44^-CD62L^-) T cells”.

Question: What about the “frequency of alloreactive, exhausted T cells in the BM” value ([2]; D+14) of the same compound?
Answer: Its value is “reduced the frequency of alloreactive, exhausted T cells”.

Question: And the “granzyme B production by CD8+ T cells” value ([2]; D+14, RNA and protein expression)?
Answer: Its value is “did not abrogate granzyme B production”.

Question: What about the “CD4+ T cell exhaustion signature in FoxP3- conventional CD4+ T cells” value ([2]; D+14, flow cytometry) of the same compound?
Answer: The value was “largely indistinguishable from synBMT recipients”.

Question: And the “DNAM-1, TIGIT, PD-1 and TOX expression on BM CD8+ T cells” value ([2]; D+14, flow cytometry, vs alloBMT without PT-Cy)?
Answer: The value was “significantly increased DNAM-1 and reduced TIGIT, PD-1, and TOX expression”.

Question: What about the overall survival ([3]; 50 mg/kg D+3 and D+4, vs untreated alloBMT) of the same compound?
Answer: The overall survival was “did not significantly reduce overall survival”.

Question: And the “myeloma burden (M-band) at 4 weeks after alloBMT” value [3, 8]?
Answer: The value was “early myeloma cytoreduction with reduced M-bands”.

Question: And the “myeloma progression (M-band) 8 weeks after alloBMT” value [3, 8]?
Answer: The value was “subsequent increase in myeloma progression”.

Question: And the “CD8+ T cell phenotype in BM, MM-bearing recipients” value ([3]; 7 weeks after transplant)?
Answer: Its value is “most CD8^+ T cells were DNAM-1-TIGIT^+ with high expression of TOX and TIM-3”.

Question: And the “total numbers of CD4+ and CD8+ T cells in BM” value ([3]; 7 weeks after transplant)?
Answer: The value was “reduction in total numbers of CD4^+ and CD8^+ T cells”.

Question: What about the “total T cell numbers (CD8 and CD4) in BM” value ([3]; D+14 (MM-free) and D+21 (MM-bearing) after alloBMT) of the same compound?
Answer: The value was “concurrently reduced; also recorded: reduces the total number of CD8 and CD4 T cells”.
